# Legend:
# [1] = system: CD44-positive SKOV3 cells; experiment: Boyden chamber migration; format: cell-based, human; conditions: compared to untreated control
# [2] = system: CD44-expressing SKOV3 cells; experiment: Cell binding to HA coated plates; format: cell-based, human
# Source text: A6 shares sequence homology with the Link Module of CD44. […] This effect was blocked with the anti-CD44 antibody, IM7. […] Without being bound by any particular A6 can induce conformational changes in CD44, resulting in either a lowered affinity of the epitope for DF1485, or preventing DF1485 from binding CD44. The binding of A6 to CD44 results in a modulation of CD44-mediated intracellular signaling and establishes a functional relationship between A6 and CD44 in CD44 expressing cells.
# [3] = system: FAK phosphorylation in CD44-positive SKOV3 cells; experiment: FAK phosphorylation signaling study; format: cell-based, human
# Procedure: Human ovarian SKOV3 cells were bound and cross-linked to A6. […] To determine if this binding influenced CD44-mediated activity, and to determine if a functional relationship existed between A6 and CD44, intracellular signaling studies were conducted.
# [4] = system: MDA-MB-231 human mammary carcinoma xenografts; experiment: Mammary carcinoma xenograft model; set-up: species or system BALB/c (nu/nu) mice; conditions: mouse, in vivo
# Procedure: (§1) Mammary: The effects of A6 in mammary tumor and metastasis models were investigated. […] The effect of A6 in Fisher rats inoculated with Mat B-111 syngeneic mammary carcinoma cells was evaluated.
# [5] = system: Mat B-111 syngeneic mammary carcinoma cells; experiment: Syngeneic mammary carcinoma model; set-up: species or system Fisher rats; conditions: rat, in vivo
# Procedure: as §1
# [6] = system: U87MG human glioma cells; experiment: Subcutaneous glioma xenograft; format: in vivo, BALB/c (nu/nu) mice
# Procedure: Glioblastoma: In animal models of glioblastoma, U87MG human glioma cells were implanted subcutaneously or intracranially in BALB/c (nu/nu) mice and the animals were divided into different treatment groups. […] In this study the effects of cisplatin were also examined.
# [7] = system: B16-F10 melanoma cells; experiment: B16-F10 lung metastatic model; format: in vivo, C57BL/6 mice; conditions: tail vein injection; lungs evaluated at day 11
# Procedure: Melanoma: The well characterized B16-F 10 lung metastatic model was employed to determine the ability of A6 to inhibit the colonization of secondary tissues by circulating cancer cells. […] Melanoma cells were injected into the tail veins of C57BL/6 mice to simulate a burden of metastasizing cells and the lungs were then evaluated for lesions at day 11.
# [8] = system: advanced gynecologic cancer; experiment: Phase 1b trial in advanced gynecologic cancer
# Procedure: Advanced Gynecologic Cancer: A Phase 1b trial, was conducted in women with advanced gynecologic cancer. […] The study used a sequential dose-escalation design, with the lowest-dose group (4 patients) receiving A6 for cycles of 14 days “on” followed by 14 days “off”, a regimen not expected to produce any therapeutic effect. […] Patients continued treatment until disease progression or unacceptable toxicity. Response was evaluated as defined by RECIST and the Gynecologic Cancer Intergroup (GCIG) CA-125 response criteria.
# [9] = system: persistent or recurrent epithelial ovarian, fallopian tube, or primary peritoneal carcinoma; experiment: Phase 2 trial, persistent or recurrent ovarian cancer
# Procedure: Persistent or Recurrent Ovarian Cancer: A Phase 2 trial was conducted in patients with persistent or recurrent epithelial ovarian, fallopian tube, or primary peritoneal carcinoma to evaluate A6 in a patient population with a disease burden greater than that presented in the previously described MOR trial. Patients had received one prior platinum-based chemotherapeutic regimen and were allowed to have received one additional cytotoxic regimen for the management of recurrent or persistent disease. Patients received a 150 mg twice daily subcutaneous dose of A6 and continued on treatment until disease progression or unacceptable toxicity. Response criteria were as defined by RECIST. Primary measures of clinical efficacy were objective tumor response and PFS at 6 months compared to a historical Gynecologic Oncology Group (GOG) dataset based on a similar population of patients.
# [10] = system: choroidal neovascularization; experiment: Laser-induced choroidal neovascularization (CNV); format: in vivo, mouse; conditions: compared to the non-treated control group
# [11] = system: choroidal neovascularization; experiment: Laser-induced choroidal neovascularization (CNV); format: in vivo, rat; conditions: subcutaneous injections; compared to non-treated controls
# [12] = system: choroidal neovascularization; experiment: Laser-induced choroidal neovascularization (CNV); format: in vivo, primate; conditions: intravitreal administration; relative to control
# [13] = system: bovine retinal microvascular endothelial cells; experiment: Retinal endothelial cell VE-cadherin / MMP study; format: cell-based
# [14] = system: retinal microvascular endothelial cell invasion; experiment: HGF-induced retinal endothelial cell invasion; format: cell-based
# Source text: The effect of A6 on HGF and its receptor, c-Met, in retinal angiogenesis has been examined.
# [15] = system: 2008 cells; experiment: CCK-8 cytotoxicity, A6 plus DDP; format: cell-based, human; conditions: A6 1, 10 or 100 μM 1 h, then 1 h A6 plus DDP; 10% FBS
# Procedure: Conditions: Drugs: DDP (3.33 mM stock) and A6 (109.8 mM stock); Drug exposure time: 1 hour ; Cell line: 2008 and its DDP-resistant subline 2008/C31*5.25; Media: RPMI 1640 plus 10% FBS containing 1 mM penicillin/streptomycin; Cytotoxicity Assays: CCK-8 (Cell Counting Kit 8—Dojindo Molecular Technologies).
# Tissue culture plates containing 96-well plates were seeded with 3000 cells in 100 μl of media per well. The wells on rows A-D were seeded with 2008 cells, while the wells on rows E-H were seeded with 2008/C13*5.25 cells. The cells were allowed to attach overnight in a 37° C. in 5% CO2 incubator. Approximately 24 h later medium was removed by aspiration and the cells were exposed to 0, 1, 10 or 100 μM A6 peptide in 100 μl. After 1 h, increasing concentrations of DDP were added to triplicate wells in 100 μl medium. Following a 1 h exposure to the combination of A6 and DDP, the drugs were removed by aspiration. The cells were then allowed to grow for 96 h following which the plates were assayed for relative cell growth with the CCK-8 assay.
# CCK-8 assay. Five μl of CCK-8 stain was added to each well and the plate was incubated at 37° C. incubator for 4 h. The plate was read with a microplate reader at a wavelength of 450 nm.
# The assay was performed using triplicate wells for each DDP concentration. […]
# [16] = system: A2780 cells; experiment: CCK-8 cytotoxicity, A6 plus DDP; format: cell-based, human; conditions: A6 1, 10 or 100 μM 1 h, then 1 h A6 plus DDP; 10% FBS
# [17] = system: B16F10-DsRed cells; experiment: B16F10-DsRed Cell Lung Metastasis Model; format: in vivo, C57BL/6 mice; conditions: for tumor burden in the lungs: A6 200 mg/Kg SC QD, day 12
# Procedure: B16F10-DsRed cells were harvested from cells culture. 1×10^6 cells/200 μl were inoculated into DPBS/mouse via bilateral tail vein in 48 female C57BL/6 mice (Charles River).
# Mice were randomized into six groups: Grp1 no treatment, Grp2 PTX (10 mg/Kg, IP on days 1 and 8), Grp3 DDP (4 mg/Kg, IP, day 1, 4 and 8), Grp4 A6 (200 mg/Kg, SC, QD), Grp5 A6 plus PTX, Grp6 A6 plus DDP. Animals were weighed before dosing and then twice a week.
# Dosing: A6 dosing started immediately after cell inoculation and consecutively for 11 days; DDP/PTX dosing started immediately after inoculation and then on days as above. The study was ended on day 12, and the lungs were harvested to determine metastatic burden.
# [18] = system: breast cancer; experiment: Compassionate use, breast cancer patient; format: in vivo, human; conditions: A6 150 mg/day for 9 years, after Taxol 268 mg daily for 2 weeks
# Procedure: A6 was administered in combination with paclitaxel as a compassionate use.
# [19] = system: endometrial cancer with metastases to lymph nodes and lungs; experiment: Compassionate use, endometrial cancer patient; format: in vivo, human
# Procedure: A second compassionate use patient was administered A6. The patient was diagnosed with endometrial cancer with metastases to lymph nodes and lungs. The patient underwent a hysterectomy followed by cisplatin and paclitaxel regimen. The patient started A6 1.5 mg/kg/day and continued on this regimen for 2 years with intermittent radiation therapy to the mediastinum to a total dose of 5,000 cGy. […] A6 increased to 2.0 mg/kg/day.
# [20] = Clinical safety profile of A6 (summary); conditions: human, in vivo
# [21] = human, in vivo
# [22] = system: human CLL B-cell lymphocytes; experiment: CLL B-cell lymphocytes in vitro
# [23] = 150 mg twice daily subcutaneous
substance,measurement,setting,value
"Ac-KPSSPPEE-NH2 [A6, Ac-KPSSPPEE-NH2]",inhibition of migration,[1],> 85%
same,binding of cells to HA coated plates,[2],increase the binding
same,FAK phosphorylation,[3],modulate FAK phosphorylation
same,metastasis,[4],An inhibition of metastasis was noted
same,lymph node metastasis,[5],markedly suppressed
same,time to progression following discontinuation of treatment,[6],prolonged the time to progression
same,"number of lung metastases, % of control",[7],50%
same,median time to progression (TTP),[8]; continuous treatment,78 days
same,safety outcome,[8]; in vivo,no specific toxicity profile
same,median time to progression (TTP),"[8]; intermittent therapy (14 days on, 14 days off)",44 days
same,patients with disease stabilization,[8]; patients dosed continuously,Greater than 40%
same,evaluable patients achieving stable disease,[9]; [23],36%
same,patients progression free for at least 6 months,[9]; [23],6.5%
same,objective tumor response,"[9]; 150 mg twice daily subcutaneous, 31 eligible patients",no responses were observed
same,tolerability,[9]; in vivo,well tolerated
same,inhibition of new vessel formation,[10],95%
same,reduction in CNV,[11],70%
same,reduction in CNV,[12],71%
same,MMP dependent VE-cadherin degradation and loss of permeability,[13],inhibit MMP dependent VE-cadherin degradation and the loss of permeability
same,secretion and activation of MMP-2 and MMP-9,[13],prevented the secretion and activation
same,HGF-induced retinal endothelial cell invasion,[14],reduced to control levels
same,modulation of sensitivity to DDP,[15],failed to modulate the sensitivity
same,modulation of sensitivity to DDP,[16],failed to modulate the sensitivity
same,tumor burden in the lungs,[17]; in the presence or absence of cisplatin,not significantly reduced
same,tumor burden in the lungs,"[17]; in the presence or absence of paclitaxel, 200 mg/kg",not significantly reduce
same,antimetastatic activity of cisplatin or paclitaxel on addition of A6,"[17]; mouse, in vivo",did not increase antimetastatic activity
same,clinical outcome,[18],complete remission
same,clinical outcome,[19]; 10+ years of biannual testing,no evidence of disease
same,disease status,[19]; A6 1.5 mg/kg/day for 2 years with intermittent radiation therapy,Stable disease
same,CA-125,"[19]; after A6 dose reduced to 0.25-0.5 mg/kg/day, increased from 25",71 U/ml
same,CA-125,[19]; after A6 increased to 2.0 mg/kg/day,22 U/ml
same,"CA-125, subsequent follow up",[19]; subsequent follow up,below 25 U/ml
same,safety profile,[20],"no immunogenicity, no dose-limiting toxicities, no serious side-effects"
same,half-life,[21],1.8 to 2 h
same,cytotoxicity in vitro,[22],"direct, dose-dependent, cytotoxicity"
same,expression of CD44 and ZAP-70,[22],down modulates

# From patent US20190381127A1, “COMBINATION THERAPY WITH A6, CHEMOTHERAPEUTIC AGENTS, RADIATION THERAPY, OR A COMBINATION THEREOF FOR THE TREATMENT OF CANCER” (Splash Pharmaceuticals, Inc., priority 2016, published 2019)
